Key:
KRas^G12S = biological target: T1, KRas^G12S (Homo sapiens, UniProt P01116, G12S); experiment: KRas binding assay (TR-FRET tracer displacement), KRas G12S; settings: TR-FRET tracer displacement, KRas G12S
T1 construct: Biotinylated KRas (corresponding to amino acids 1-169, produced at Accelegan Inc.); biotin (biotinylated); purchased Accelegan Inc

[1] = system: KRas-mediated phosphorylation of ERK in H727 cells; experiment: Inhibition of KRas-mediated phosphorylation of ERK (Cisbio HTRF pERK), H727 cells; type: cell-based; settings: Homo sapiens, NCI-H727, H727 cells; HTRF pERK
Summary of the method: (§1)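 H358, H727, H460 and AsPC-1 cells seeded at 6,000/well, treated 3 hrs with 10-dose 3-fold dilutions from 10 uM (0.8% DMSO); 0.2 uM trametinib as min control. Lysed 40 min at 4° C; lysate incubated 2 hrs at room temperature with d2/cryptate antibodies, HTRF read.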

[2] = system: KRas-mediated phosphorylation of ERK in AsPC-1 cells; experiment: Inhibition of KRas-mediated phosphorylation of ERK (Cisbio HTRF pERK), AsPC-1 cells; type: cell-based; settings: Homo sapiens, ASPC1, AsPC-1 cells; HTRF pERK
Summary of the method: as §1

[3] = system: KRas-mediated phosphorylation of ERK in HCT116 cells; experiment: Inhibition of KRas-mediated phosphorylation of ERK (Cisbio HTRF pERK), HCT116 cells; type: cell-based; settings: Homo sapiens, HCT-116, HTRF pERK
Summary of the method: (§2)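 HTRF readout of phospho-ERK in cell lysates after 3 hrs of compound exposure. Dosing: 10 uM top, 3-fold steps, 10 doses, final DMSO 0.8%. Min control: 0.2 uM Trametinib. Lysis ran 40 mins at 4° C, and antibody detection 2 hrs at room temperature.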

[4] = system: KRas-mediated phosphorylation of ERK in H358 cells; experiment: Inhibition of KRas-mediated phosphorylation of ERK (Cisbio HTRF pERK), H358 cells; type: cell-based; settings: Homo sapiens, NCI-H358, HTRF pERK
Summary of the method: as §1

[5] = system: KRas-mediated phosphorylation of ERK in A549 cells; experiment: Inhibition of KRas-mediated phosphorylation of ERK (Cisbio HTRF pERK), A549 cells; type: cell-based; settings: Homo sapiens, HTRF pERK
Summary of the method: as §2

[6] = system: KRas-mediated phosphorylation of ERK in PSN1 cells; experiment: Inhibition of KRas-mediated phosphorylation of ERK (Cisbio HTRF pERK), PSN1 cells; type: cell-based; settings: Homo sapiens
Summary of the method: (§3)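 Day 1 seeding: 6,000 cells per well, RPMI/10% FBS, left overnight at 37° C. with 5% CO2. Plates then stood covered for 4 h at room temperature prior to HTRF detection of pERK.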

KRas^WT = biological target: T2, KRas^WT (Homo sapiens, UniProt P01116); experiment: KRas binding assay (TR-FRET tracer displacement), KRas WT; settings: TR-FRET tracer displacement, KRas WT
T2 construct: Biotinylated KRas (corresponding to amino acids 1-169, produced at Accelegan Inc.); biotin (biotinylated); purchased Accelegan Inc

KRas^G12V = biological target: T3, KRas^G12V (Homo sapiens, UniProt P01116, G12V); experiment: KRas binding assay (TR-FRET tracer displacement), KRas G12V
T3 construct: Biotinylated KRas (corresponding to amino acids 1-169, produced at Accelegan Inc.); biotin (biotinylated); purchased Accelegan Inc

KRas^G12C = biological target: T4, KRas^G12C (Homo sapiens, UniProt P01116, G12C); experiment: KRas binding assay (TR-FRET tracer displacement), KRas G12C; settings: TR-FRET tracer displacement, KRas G12C
T4 construct: Biotinylated KRas (corresponding to amino acids 1-169, produced at Accelegan Inc.); biotin (biotinylated); purchased Accelegan Inc

KRas^G12D = biological target: T5, KRas^G12D (Homo sapiens, UniProt P01116, G12D); experiment: KRas binding assay (TR-FRET tracer displacement), KRas G12D
T5 construct: Biotinylated KRas (corresponding to amino acids 1-169, produced at Accelegan Inc.); biotin (biotinylated); purchased Accelegan Inc

[7] = system: KRas-mediated phosphorylation of ERK in H460 cells; experiment: Inhibition of KRas-mediated phosphorylation of ERK (Cisbio HTRF pERK), H460 cells; type: cell-based; settings: Homo sapiens, NCI-H460, HTRF pERK
Summary of the method: as §1

[8] = system: KRas-mediated phosphorylation of ERK in MKN1 cells; experiment: Inhibition of KRas-mediated phosphorylation of ERK (Cisbio HTRF pERK), MKN1 cells; type: cell-based; settings: Homo sapiens, MKN-1
Summary of the method: as §3

T4 sequence (P01116 1-169 isoform P01116-2 G12C): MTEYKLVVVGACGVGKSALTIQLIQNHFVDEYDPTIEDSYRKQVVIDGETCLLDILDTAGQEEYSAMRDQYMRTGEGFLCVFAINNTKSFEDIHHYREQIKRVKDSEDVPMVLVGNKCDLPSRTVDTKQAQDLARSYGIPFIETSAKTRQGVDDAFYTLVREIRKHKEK
T2 sequence (P01116 1-169 isoform P01116-2): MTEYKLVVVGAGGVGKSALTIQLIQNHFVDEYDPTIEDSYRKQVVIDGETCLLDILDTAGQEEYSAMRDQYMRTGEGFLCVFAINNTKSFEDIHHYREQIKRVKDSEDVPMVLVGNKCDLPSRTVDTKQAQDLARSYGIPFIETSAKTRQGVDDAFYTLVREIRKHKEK
T3 sequence (P01116 1-169 isoform P01116-2 G12V): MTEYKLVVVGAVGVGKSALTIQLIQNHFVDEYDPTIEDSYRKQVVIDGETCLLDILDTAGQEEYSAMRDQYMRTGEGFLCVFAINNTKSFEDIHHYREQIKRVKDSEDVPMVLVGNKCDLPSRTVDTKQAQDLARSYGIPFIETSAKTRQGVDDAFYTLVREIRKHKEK
T1 sequence (P01116 1-169 isoform P01116-2 G12S): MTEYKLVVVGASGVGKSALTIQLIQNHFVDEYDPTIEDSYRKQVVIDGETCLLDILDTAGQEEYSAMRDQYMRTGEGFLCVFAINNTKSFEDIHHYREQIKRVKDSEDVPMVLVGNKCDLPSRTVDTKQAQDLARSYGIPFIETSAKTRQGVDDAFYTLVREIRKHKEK
T5 sequence (P01116 1-169 isoform P01116-2 G12D): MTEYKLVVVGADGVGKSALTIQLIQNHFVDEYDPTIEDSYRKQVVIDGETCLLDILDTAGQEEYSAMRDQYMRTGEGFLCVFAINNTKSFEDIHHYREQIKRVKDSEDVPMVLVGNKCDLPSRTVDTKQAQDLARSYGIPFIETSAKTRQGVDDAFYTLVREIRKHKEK

Structure (SMILES) | IC50 (KRas^G12S) [nM] | IC50 [1] [nM] | IC50 [2] [nM] | IC50 [3] [nM] | IC50 [4] [nM] | IC50 [5] [nM] | IC50 [6] [nM] | IC50 (KRas^WT) [nM] | IC50 (KRas^G12V) [nM] | IC50 (KRas^G12C) [nM] | IC50 (KRas^G12D) [nM] | IC50 [7] [nM] | IC50 [8] [nM]
CCc1c(F)ccc2cc(O)cc(-c3ncc4c(N5C[C@@H]6C[C@H](C5)[C@H](O)C6)nc(OCC56CCCN5CC5(CC5)C6)nc4c3F)c12 (stereo partly drawn) [Example 931, (1R,5R,6R)-3-(2-((dihydro-1′H,3′H-spiro[cyclopropane-1,2′-pyrrolizin]-7a′ (5′H)-yl)methoxy)-7-(8-ethyl-7-fluoro-3-hydroxynaphthalen-1-yl)-8-fluoropyrido[4,3-d]pyrimidin-4-yl)-3-azabicyclo[3.2.1]octan-6-ol] | < 2 | 59 | 58 | 72 | 5 | 17 | 2280 | < 2 | < 2 | < 2 | < 2 | 15 | 0.9
CCc1c(F)ccc2cc(O)cc(-c3ncc4c(N5C[C@@H]6C[C@H](C5)[C@H](O)C6)nc(OCC56CCCN5CC(=C(F)F)C6)nc4c3F)c12 (stereo partly drawn) [Example 798, (1R,5R,6R)-3-(2-((2-(difluoromethylene)tetrahydro-1H-pyrrolizin-7a(5H)-yl)methoxy)-7-(8-ethyl-7-fluoro-3-hydroxynaphthalen-1-yl)-8-fluoropyrido[4,3-d]pyrimidin-4-yl)-3-azabicyclo[3.2.1]octan-6-ol] | < 2 | 19 | 17 | 25 | 3 | 3 | 946 | < 2 | < 2 | < 2 | < 2 | 4 | 0.3
C[C@@H]1C[C@@H]1c1c(Cl)cc(O)cc1-c1ncc2c(N3CCCC4(CNS(=O)(=O)N4)C3)nc(OC[C@@]34CCCN3C[C@H](F)C4)nc2c1F (stereo in doubt) [Example 929, 7-(7-(3-chloro-5-hydroxy-2-(cis-2-methylcyclopropyl)phenyl)-8-fluoro-2-(((2R,7aS)-2-fluorotetrahydro-1H-pyrrolizin-7a(5H)-yl)methoxy)pyrido[4,3-d]pyrimidin-4-yl)-2-thia-1,3,7-triazaspiro[4.5]decane 2,2-dioxide] | < 2 | 163 | 60 | 137 | 14 | 84 | 397 | < 2 | < 2 | < 2 | 2 | 41 | 17
CCc1c(F)ccc2cc(O)cc(-c3ncc4c(N5CC=CCC5)nc(OC[C@@]56CCCN5C[C@H](F)C6)nc4c3F)c12 [Example 921, 4-(4-(3,6-dihydropyridin-1(2H)-yl)-8-fluoro-2-(((2R,7aS)-2-fluorotetrahydro-1H-pyrrolizin-7a(5H)-yl)methoxy)pyrido[4,3-d]pyrimidin-7-yl)-5-ethyl-6-fluoronaphthalen-2-ol] | 2 | 86 | 92 | 309 | 33 | 68 | 7630 | 4 | 2 | 2 | 4 | 75 | 0.4
C=C1CN2CCCC2(COc2nc(N3C[C@@H]4C[C@H](C3)[C@H](O)C4)c3cnc(-c4cc(O)cc5ccc(F)c(CC)c45)c(F)c3n2)C1 (stereo partly drawn) [Example 800, (1R,5R,6R)-3-(7-(8-ethyl-7-fluoro-3-hydroxynaphthalen-1-yl)-8-fluoro-2-((2-methylenetetrahydro-1H-pyrrolizin-7a(5H)-yl)methoxy)pyrido[4,3-d]pyrimidin-4-yl)-3-azabicyclo[3.2.1]octan-6-ol] | < 2 | 3 | 6 | 13 | 1 | 3 | 587 | < 2 | < 2 | < 2 | < 2 | 3 | 0.3

Reference: patent US20260015350A1, “AZAQUINAZOLINE PAN-KRAS INHIBITORS” (Mirati Therapeutics, Inc., priority 2022, published 2026)
